In general, solubility refers to the dissolved amount per volume that the medium holds. A higher solubility goes with a readily soluble substance.

Data on three compounds can be found in patent US12187754B2, “LpxC inhibitors and uses thereof” (Blacksmith Medicines, Inc., priority 2021, dated 2025).

One data set in a line: Thermal solubility. Type of data set: physicochemical. The conditions noted are these: aqueous buffer, thermodynamic from solid; 100 mM potassium phosphate buffer pH 7.4, 24 h, 25° C. The procedure: Solubility of the compounds was assessed in 100 mM potassium phosphate buffer at pH 7.4 after 24 hours at room temperature.
Accurately weighed K2HPO4 (2.79 g) and KH2PO4 (0.54 g) were dissolved in 90 mL of Milli-Q water and mixed well. Volume was made upto 200 mL with Milli-Q water and mixed well. The prepared phosphate buffer was stored at 2-8° C. and used within a month.
Approximately 30 mg of test compound was added to approximately 1 mL of the potassium phosphate buffer, pH 7.4. If the visual inspection indicated precipitation, no further compound is added. If the visual inspection indicated a clear solution, further increments of compound were added until the solution was no longer clear.
Test compounds and assay controls (caffeine) were further incubated for 24 h at 25° C. temperature on a thermomixer at a shaking speed of 1200 rpm. After incubation, the samples (200 μL) were transferred to a filtration plate to which a plate was attached at bottom for collecting the filtrate. The plate was centrifuged at 4000 rpm for 2 min and the filtrate was collected in the attached bottom plate. The filtrates were diluted using filtered buffer based on the initial amount of compound added. All samples were analysed by HPLC-UV method against 8 point calibration curve with concentrations ranging from 2.5 μg/mL to 1000 μg/mL.

The nature of the next data set: Kinetic solubility. Type of data set: physicochemical. The procedure:
Solubility of the compounds was assessed in 10 mM phosphate-buffered saline (PBS) at pH 7 at final concentrations of 20, 40, and 50 mg/mL of test compound.

The subject of a further data set is K. pneumoniae BAA-1705. Description: Mouse urinary tract infection model, K. pneumoniae BAA-1705. Particulars: for bacterial burden in urine relative to vehicle-treated controls and the ciprofloxacin control: except for the 30 mg/kg IV Compound A experiment; for Bladder Terminal Burden / Kidney Terminal Burden / Urine Terminal Burden: mice, 96 hours. Type of data set: in vivo. The procedure:
(§1) Compound A and its prodrugs as disclosed herein were tested in an in vivo mouse model for Urinary Tract Infection. Briefly, mice were infected with E. coli UTI 89 to cause a UTI infection and were treated with compounds disclosed herein.
(§2) Five days prior to infection, C3H/HeNR female mice were preconditioned with drinking water containing 5% glucose. Mice were rendered unconscious using parenteral anaesthesia (ketamine/medetomidine) then 0.05 mL of a bacterial suspension of E. coli UTI 89 (1.2×10^9 CFU/mL (6.2×10^7 CFU/mouse) was administered transurethrally into the bladder to cause an ascending UTI infection.
[…]; […]; […]; […] for 3 days (six doses total). Ciprofloxacin was given as a control at 10 mg/kg/dose IV every 12 hours. Compound A was formulated in 10% DMSO, 5% Cremophor, 85% SFI; the remaining compounds used a sterile phosphate-buffered saline (PBS) formulation. Each group was comprised of five mice each.
(§3) Urine, bladder, and kidney were harvested at 24 h (pre-treatment group only) and 96 h post infection and quantitatively cultured.
The experiment was repeated using K. pneumoniae BAA-1705 (MDR; MIC90 strain). Table 5 and FIG. 2 summarize the results, showing the average terminal burden of K. pneumoniae BAA-1705 in urine, bladder, and kidney at the conclusion of the study (96 hours).

Another data set relates to E. coli UTI 89. Description: Mouse urinary tract infection model, E. coli UTI 89. It counts as in vivo. The conditions noted are these: for Bladder Terminal Burden / Kidney Terminal Burden / Urine Terminal Burden: mice, 96 h post infection; for bacterial burden in urine relative to vehicle-treated controls / bacterial burden in bladder relative to vehicle-treated controls / bacterial burden in kidney relative to vehicle-treated control / efficacy on bacterial burden in kidney: E. coli UTI 89, mice; for bacterial burden in bladder relative to vehicle-treated controls / bacterial burden in kidney relative to vehicle-treated control: IV administration; for efficacy on bacterial burden in kidney: PO administration. The procedure: as §1, §2
IV or PO treatment was started 24 h post infection with 3, 10, 15 mg/kg/dose IV Compound A; 3, 10, 15.30 mg/kg/dose IV Compound 1; 3, and 10 mg/kg/dose IV Compound 2; and 30 mg/kg/dose oral of either Compound 1 or 2 administered every 12 hours for 3 days (six doses total). Ciprofloxacin was given as a control at 10 mg/kg/dose IV every 12 hours. Compound A was formulated in 10% DMSO, 5% Cremophor, 85% SFI; the remaining compounds used a sterile phosphate-buffered saline (PBS) formulation. Each group was comprised of five mice each.
as §3

A further data set can be described thus: Pharmacokinetics in rats. The conditions noted are these: male, Sprague-Dawley, plasma, intravenous, oral; after 4 h, all routes and doses tested in rat; read-out: plasma concentration of prodrug Compound 1. It counts as in vivo, Male Sprague-Dawley (SD) rats. The procedure:
(§4) Stock solutions of test compounds were prepared at 2.5 or 5.0 mg/mL in 10 mM PBS. Male Sprague-Dawley (SD) rats (n=3 per group) or beagle dogs (n=3 per group) were administered test compound by either IV or oral administration. For IV-administered compounds, a three hour infusion was used. For PO-administered compounds, a single bolus dose was used.
(§5) After initiation of IV dosing (or after PO bolus dosing), whole blood samples were collected at 1, 3, 3.5, 4, 6, 8, and 24 hour timepoints. All samples were collected into Plasma K2-EDTA collection tubes and processed to separate plasma from red blood cells.
(§6) Liquid chromatography-tandem mass spectrometry (LC-MS/MS) was used to analyze all plasma samples, with both the test compound and the active agent Compound A being quantified. The lower limit of quantitation (LLOQ) for both rats and dogs was 1 ng/mL.

The next data set can be described thus: Pharmacokinetics in dogs. Type of data set: in vivo. The conditions noted are these: beagle, plasma, intravenous, oral; after 6 h, all routes and doses tested in dog; read-out: plasma concentration of prodrug Compound 1. The procedure:
as §4, §5, §6

[1] abbreviates: 20, 40, and 50 mg/mL in 10 mM PBS pH 7.
[2] abbreviates: 3 mg/kg/dose IV every 12 hours for 3 days.
Where [3] appears, read: 10 mg/kg/dose IV every 12 hours for 3 days.
Setting [4] is: 30 mg/kg/dose PO every 12 hours for 3 days.
[5] abbreviates: 15 mg/kg/dose IV every 12 hours for 3 days.

With `N#CC1CN(C[C@@H](Cc2nc[nH]c(=O)c2OCOP(=O)(O)O)c2ccc(C#Cc3ccc(CN4CCOCC4)cc3)cc2)C1` [Compound 2, (S)-((4-(3-(3-cyanoazetidin-1-yl)-2-(4-((4-(morpholinomethyl)phenyl)ethynyl)phenyl)propyl)-6-oxo-1,6-dihydropyrimidin-5-yl)oxy)methyl dihydrogen phosphate], in “Thermal solubility”, the solubility at 24 h was ≥ 3000 µg/mL. Further, in “Kinetic solubility” (setting [1]), the “appearance after vortex mixing” value is “milky suspensions”. The appearance after sonication entry in “Kinetic solubility” (20, 40, and 50 mg/mL in 10 mM PBS, sonication in 40° C. water bath for 30 min) was “no change in appearance”. Besides, the “appearance after treatment with 1M HCL” value in “Kinetic solubility” (20, 40, and 50 mg/mL, final pH of 4, 10 seconds of vortexing) was “Clear solutions”. Also, in the data set “Kinetic solubility” (20, 40, and 50 mg/mL, final pH of 7, 10 seconds of vortexing), the “appearance after addition of 1M NaOH” value is “clear solutions”. Moreover, in the data set with K. pneumoniae BAA-1705 (K. pneumoniae BAA-1705, mice), the “bacterial burden in kidney relative to vehicle-treated controls and the ciprofloxacin control” value is “statistically significant reductions in bacterial burden in kidney”; the “bacterial burden in urine relative to vehicle-treated controls and the ciprofloxacin control” value is reported as “statistically significant reductions in bacterial burden in urine”. In the data set with E. coli UTI 89 (setting [2]), the “Bladder Terminal Burden” value is reported as 5.15 × 10^5 CFU/mL, the “Kidney Terminal Burden” value is reported as 2.52 × 10^3 CFU/mL and the “Urine Terminal Burden” value was 4.69 × 10^4 CFU/mL. In addition, in the data set with E. coli UTI 89 (setting [3]), the “Bladder Terminal Burden” value is reported as 1.17 × 10^6 CFU/mL, the “Kidney Terminal Burden” value was 9.67 × 10^2 CFU/mL and the “Urine Terminal Burden” value is 2.73 × 10^4 CFU/mL. In addition, in the data set on E. coli UTI 89 (setting [4]), the “Bladder Terminal Burden” value was 2.82 × 10^5 CFU/mL, the “Kidney Terminal Burden” value is recorded as 3.81 × 10^2 CFU/mL and the “Urine Terminal Burden” value is reported as 3.41 × 10^3 CFU/mL. In addition, in the data set on E. coli UTI 89, the “bacterial burden in urine relative to vehicle-treated controls” value is listed as “statistically significant reductions in bacterial burden in urine”, the “bacterial burden in bladder relative to vehicle-treated controls” value was “reductions in bacterial burden in bladder”, the “bacterial burden in kidney relative to vehicle-treated control” value is “statistically significant reductions in bacterial burden in kidney” and the “efficacy on bacterial burden in kidney” value is reported as “efficacious”.
For `N#CC1CN(C[C@@H](Cc2nc[nH]c(=O)c2OP(=O)(O)O)c2ccc(C#Cc3ccc(CN4CCOCC4)cc3)cc2)C1` [Compound 1, (S)-4-(3-(3-cyanoazetidin-1-yl)-2-(4-((4-(morpholinomethyl)phenyl)ethynyl)phenyl)propyl)-6-oxo-1,6-dihydropyrimidin-5-yl dihydrogen phosphate], the solubility at 24 h in “Thermal solubility” is ≥ 3000 µg/mL. Further, in “Kinetic solubility” (setting [1]), the “appearance after vortex mixing” value is “clear solutions”. Also, the solubility after storage result in “Kinetic solubility” (20, 40, and 50 mg/mL in 10 mM PBS pH 7, storage at 4° C. for 20 hours) is on record as “remained soluble”. In “Pharmacokinetics in rats”, the concentration at 4 h is < 100 ng/mL. Moreover, the “Bladder Terminal Burden” value is given as “BLoD” in the data set on K. pneumoniae BAA-1705 (11.5 mg/kg/dose IV); “BLoD” with K. pneumoniae BAA-1705 (35 mg/kg/dose IV); 4.58 × 10^0 CFU/mL in the data set on K. pneumoniae BAA-1705 (69.5 mg/kg/dose IV); “BLoD” with K. pneumoniae BAA-1705 (104.5 mg/kg/dose PO); 2.64 × 10^6 CFU/mL with E. coli UTI 89 (setting [2]); 5.05 × 10^5 CFU/mL with E. coli UTI 89 (setting [3]). Further, the “Bladder Terminal Burden” value in the data set with E. coli UTI 89 (setting [5]) is recorded as 9.57 × 10^4 CFU/mL; with E. coli UTI 89 (setting [4]), 1.81 × 10^5 CFU/mL. Also, the “Kidney Terminal Burden” value in the data set on K. pneumoniae BAA-1705 (11.5 mg/kg/dose IV) is 1.72 × 10^1 CFU/mL; in the data set on K. pneumoniae BAA-1705 (35 mg/kg/dose IV), “BLoD”; with K. pneumoniae BAA-1705 (69.5 mg/kg/dose IV) it was “BLoD”; with K. pneumoniae BAA-1705 (104.5 mg/kg/dose PO) it was “BLoD”; in the data set with E. coli UTI 89 (setting [2]) it was 4.74 × 10^4 CFU/mL; in the data set on E. coli UTI 89 (setting [3]), 5.24 × 10^2 CFU/mL. In addition, the “Kidney Terminal Burden” value with E. coli UTI 89 (setting [5]) is 1.28 × 10^2 CFU/mL; with E. coli UTI 89 (setting [4]) it was 4.04 × 10^2 CFU/mL. Moreover, the “Urine Terminal Burden” value with K. pneumoniae BAA-1705 (11.5 mg/kg/dose IV) is on record as 2.15 × 10^1 CFU/mL; in the data set on K. pneumoniae BAA-1705 (35 mg/kg/dose IV), “BLoD”; in the data set on K. pneumoniae BAA-1705 (69.5 mg/kg/dose IV), “BLoD”; in the data set with K. pneumoniae BAA-1705 (104.5 mg/kg/dose PO), 2.51 × 10^0 CFU/mL; with E. coli UTI 89 (setting [2]), 2.93 × 10^5 CFU/mL; in the data set on E. coli UTI 89 (setting [3]), 9.40 × 10^3 CFU/mL. The “Urine Terminal Burden” value in the data set on E. coli UTI 89 (setting [5]) is 3.59 × 10^3 CFU/mL; in the data set with E. coli UTI 89 (setting [4]) it was 8.73 × 10^3 CFU/mL. The “bacterial burden in kidney relative to vehicle-treated controls and the ciprofloxacin control” value in the data set with K. pneumoniae BAA-1705 (K. pneumoniae BAA-1705, mice) is reported as “statistically significant reductions in bacterial burden in kidney”. Besides, the “bacterial loads in kidney” value in the data set on K. pneumoniae BAA-1705 (K. pneumoniae BAA-1705, mice, all routes of administration) is on record as “below the limit of detection”. Further, in the data set with K. pneumoniae BAA-1705 (K. pneumoniae BAA-1705, mice), the “bacterial burden in urine relative to vehicle-treated controls and the ciprofloxacin control” value is “statistically significant reductions in bacterial burden in urine”. Further, the “bacterial burden in urine relative to vehicle-treated controls” value in the data set on E. coli UTI 89 is given as “statistically significant reductions in bacterial burden in urine”. The “bacterial burden in bladder relative to vehicle-treated controls” value with E. coli UTI 89 is “reductions in bacterial burden in bladder”. In addition, the “bacterial burden in kidney relative to vehicle-treated control” value in the data set with E. coli UTI 89 is recorded as “statistically significant reductions in bacterial burden in kidney”. In addition, in the data set with E. coli UTI 89, the “efficacy on bacterial burden in kidney” value was “efficacious”. Further, in “Pharmacokinetics in dogs”, the concentration at 6 h is < 100 ng/mL.
On to `O=C(O)c1cn(C2CC2)c2cc(N3CCNCC3)c(F)cc2c1=O` [Ciprofloxacin, reference compound], for which, in the data set on K. pneumoniae BAA-1705 (10 mg/kg/dose IV), the “Bladder Terminal Burden” value is 2.27 × 10^1 CFU/mL, the “Kidney Terminal Burden” value was 1.88 × 10^3 CFU/mL and the “Urine Terminal Burden” value was 1.78 × 10^2 CFU/mL. In the data set on K. pneumoniae BAA-1705 (10 mg/kg/dose PO), the “Bladder Terminal Burden” value is given as 4.05 × 10^2 CFU/mL, the “Kidney Terminal Burden” value is reported as 2.59 × 10^4 CFU/mL and the “Urine Terminal Burden” value is reported as 9.71 × 10^2 CFU/mL. Further, in the data set on E. coli UTI 89 (setting [3]), the “Bladder Terminal Burden” value is given as 2.85 × 10^5 CFU/mL, the “Kidney Terminal Burden” value is reported as 1.88 × 10^2 CFU/mL and the “Urine Terminal Burden” value is 5.07 × 10^2 CFU/mL.
